Laboratory results as given in ChEMBL document CHEMBL1132670, “Combinatorial search of substituted beta-cyclodextrins for phosphatase-like activity” (Bioorg Med Chem Lett, 1999).

Test: Pseudo-first-order rate constant was determined by hydrolysis p-NPP in the presence of Zn 2+ at 37 C
Type: ADME

- K obs: 4.16e-07 s⁻¹
Structure (SMILES): OC[C@H]1O[C@@H]2O[C@H]3[C@H](O)[C@@H](O)[C@@H](O[C@H]4[C@H](O)[C@@H](O)[C@@H](O[C@H]5[C@H](O)[C@@H](O)[C@@H](O[C@H]6[C@H](O)[C@@H](O)[C@@H](O[C@H]7[C@H](O)[C@@H](O)[C@@H](O[C@H]8[C@H](O)[C@@H](O)[C@@H](O[C@H]1[C@H](O)[C@H]2O)O[C@@H]8CO)O[C@@H]7CO)O[C@@H]6CO)O[C@@H]5CO)O[C@@H]4CO)O[C@@H]3CO [BETADEX]
